Source: DBAASP
≈ marks a conversion by molar mass, not a printed value.

Assays:
Test in all cases: ≥ marks a high value that may be exact or a test limit, other limits are often not marked, values filed in µg/mL are converted to µM
[1] = tested on: Escherichia coli ATCC 25922
[2] = tested on: Pseudomonas aeruginosa ATCC 27853
Escherichia coli = tested on: Escherichia coli
[3] = tested on: Pseudomonas aeruginosa H188
[4] = tested on: Escherichia coli DH5alpha
[5] = tested on: Staphylococcus aureus ATCC 43300
[6] = tested on: Escherichia coli ATCC 8739
[7] = tested on: Staphylococcus aureus ATCC 6538
[8] = tested on: Candida albicans ATCC 90028
[9] = tested on: Bacillus subtilis ATCC 6633
[10] = tested on: Staphylococcus aureus ATCC 25923
[11] = tested on: Cryptococcus neoformans ATCC 208821
[12] = tested on: Klebsiella pneumoniae ATCC 700603
[13] = tested on: Acinetobacter baumannii ATCC 19606
Escherichia coli MG1655 = tested on: Escherichia coli MG1655
[14] = tested on: Pseudomonas aeruginosa PAO1
Candida albicans = tested on: Candida albicans

Which results are given for `CC[C@H](C)[C@H](NC(=O)[C@H](C)NC(=O)[C@H](CCCCN)NC(=O)[C@H](CC(C)C)NC(=O)[C@H](C)NC(=O)[C@@H](NC(=O)[C@H](Cc1cnc[nH]1)NC(=O)[C@H](CC(C)C)NC(=O)[C@H](CC(C)C)NC(=O)[C@@H](NC(=O)[C@H](CCCCN)NC(=O)[C@H](CCCCN)NC(=O)[C@H](C)NC(=O)[C@H](CO)NC(=O)[C@H](CCCCN)NC(=O)[C@H](Cc1ccccc1)NC(=O)[C@@H](NC(=O)[C@H](CCCCN)NC(=O)[C@H](CC(C)C)NC(=O)[C@H](Cc1ccccc1)NC(=O)[C@H](CO)NC(=O)[C@H](CCCCN)NC(=O)[C@H](Cc1c[nH]c2ccccc12)NC(=O)[C@H](CCCCN)NC(C)=O)[C@@H](C)O)[C@@H](C)O)[C@@H](C)O)C(=O)N[C@@H](CO)C(=O)N[C@@H](CO)C(N)=O` [KWKSFLKTFKSAKKTLLHTALKAISS]?
MIC [1]: 0.337 µM (≈ 1.01 µg/mL); MIC [2]: 0.675 µM (≈ 2.03 µg/mL); MIC (Escherichia coli): 0.337 µM (≈ 1.01 µg/mL); MIC [3]: 0.675 µM (≈ 2.03 µg/mL); MIC [4]: 1.35 µM (≈ 4.06 µg/mL)

Which results are given for `CC[C@H](C)[C@H](NC(=O)CN)C(=O)N[C@@H](Cc1ccccc1)C(=O)N[C@@H](CO)C(=O)N[C@@H](CC(C)C)C(=O)N[C@H](C(=O)N[C@@H](CCCCN)C(=O)NCC(=O)N[C@@H](C)C(=O)N[C@@H](C)C(=O)N[C@@H](CCCCN)C(=O)N[C@@H](CC(C)C)C(=O)N[C@H](C(=O)N[C@H](C(=O)N[C@@H](CCCCN)C(=O)N[C@H](C(=O)N[C@H](C(=O)N[C@@H](C)C(=O)N[C@@H](CCCCN)C(=O)N[C@@H](CCC(=O)O)C(=O)N[C@@H](C)C(=O)NCC(=O)N[C@@H](CCCCN)C(=O)N[C@H](C(=O)NCC(=O)N[C@@H](CC(C)C)C(=O)N[C@@H](CCC(=O)O)C(=O)N[C@@H](CC(C)C)C(=O)N[C@@H](CCSC)C(=O)N[C@@H](C)C(=O)N[C@H]1CSSC[C@@H](C(=O)O)NC(=O)[C@H](CCC(N)=O)NC(=O)[C@H](CC(N)=O)NC(=O)[C@H]([C@@H](C)O)NC(=O)[C@H](C(C)C)NC(=O)[C@H](CCCCN)NC1=O)[C@@H](C)O)C(C)C)[C@@H](C)O)[C@@H](C)O)[C@@H](C)CC)[C@@H](C)CC` [GIFSLIKGAAKLITKTVAKEAGKTGLELMACKVTNQC]?
MIC [5]: 25 µM (≈ 95.9 µg/mL); MIC [6]: 12.5 µM (≈ 47.9 µg/mL); MIC [7]: 3.1 µM (≈ 11.9 µg/mL); MIC [8]: ≥ 100 µM; MIC [9]: 6.3 µM (≈ 24.2 µg/mL)

Which MIC [6] does the source give for `CC[C@H](C)[C@H](NC(=O)[C@H](C)NC(=O)[C@@H](NC(=O)[C@H](CCCCN)NC(=O)[C@H](CCCCN)NC(=O)[C@H](Cc1cnc[nH]1)NC(=O)[C@@H](NC(=O)[C@H](CCCCN)NC(=O)[C@H](CS)NC(=O)[C@@H](NC(=O)[C@@H](NC(=O)[C@H](CCCN=C(N)N)NC(=O)[C@@H](NC(=O)[C@H](C)NC(=O)[C@H](CC(C)C)NC(=O)[C@H](CCCCN)NC(=O)[C@@H]1CCCN1)[C@@H](C)CC)[C@@H](C)CC)[C@@H](C)O)[C@@H](C)CC)C(C)C)C(=O)N[C@@H](CO)C(=O)N[C@H](C(=O)O)C(C)C` [PKLAIRITCKIHKKVAISV] here?
Its MIC is 30.2 µM (≈ 64 µg/mL).

And the MIC [10]?
The MIC was 121 µM (≈ 256 µg/mL).

`NC(=O)CC[C@H](NC(=O)[C@H](Cc1cnc[nH]1)NC(=O)[C@H](CO)NC(=O)[C@H](CCCN=C(N)N)NC(=O)[C@H](Cc1ccccc1)NC(=O)[C@H](Cc1cnc[nH]1)NC(=O)[C@H](CCCN=C(N)N)NC(=O)[C@H](Cc1cnc[nH]1)NC(=O)[C@H](Cc1cnc[nH]1)NC(=O)[C@@H](N)CO)C(=O)N[C@@H](CS)C(=O)N[C@@H](CCCN=C(N)N)C(=O)N[C@@H](CCCN=C(N)N)C(=O)O` [SHHRHFRSHQCRR] was tested. Which MIC [5] did it give?
The MIC was 18.3 µM (≈ 32 µg/mL).

And the MIC [1]?
The MIC was over 18.3 µM.

And the MIC [2]?
Its MIC is over 18.3 µM.

And the MIC [11]?
Its MIC is 4.59 µM (≈ 8 µg/mL).

And the MIC [12]?
Its MIC is over 18.3 µM.

And the MIC [8]?
Its MIC is 18.3 µM (≈ 32 µg/mL).

And the MIC [13]?
Its MIC is over 18.3 µM.

Which MIC [6] does the source give for `CC[C@H](C)[C@H](NC(=O)[C@H](CCCCN)NC(=O)[C@H](CC(=O)O)NC(=O)[C@H](CC(C)C)NC(=O)[C@@H](NC(=O)[C@H](CCCN=C(N)N)NC(=O)[C@H](CC(C)C)NC(=O)[C@H](CC(C)C)NC(=O)[C@H](CC(C)C)NC(=O)[C@H](CCCCN)NC(=O)[C@H](CC(N)=O)NC(=O)[C@@H](NC(=O)[C@H](CCCCN)NC(=O)[C@H](CCCCN)NC(=O)[C@@H]1CCCN1)[C@@H](C)CC)[C@@H](C)CC)C(=O)N[C@@H](C)C(=O)N[C@@H](CO)C(=O)N[C@@H](Cc1ccccc1)C(=O)N[C@@H](CO)C(=O)O` [PKKINKLLLRILDKIASFS] here?
The MIC was 14.6 µM (≈ 32 µg/mL).

What does the source list for `CC[C@H](C)[C@H](NC(=O)[C@H](C)NC(=O)[C@H](CCCCN)NC(=O)[C@H](CC(C)C)NC(=O)[C@H](C)NC(=O)[C@@H](NC(=O)[C@H](Cc1cnc[nH]1)NC(=O)[C@H](CC(C)C)NC(=O)CNC(=O)[C@@H](NC(=O)[C@H](CCCCN)NC(=O)[C@H](CCCCN)NC(=O)[C@H](C)NC(=O)[C@H](CO)NC(=O)[C@H](CCCCN)NC(=O)[C@H](Cc1ccccc1)NC(=O)[C@@H](NC(=O)[C@H](CCCCN)NC(=O)[C@H](CC(C)C)NC(=O)[C@H](Cc1ccccc1)NC(=O)[C@H](CO)NC(=O)[C@H](CCCCN)NC(=O)[C@H](Cc1c[nH]c2ccccc12)NC(=O)[C@H](CCCCN)NC(C)=O)[C@@H](C)O)[C@@H](C)O)[C@@H](C)O)C(=O)N[C@@H](CO)C(=O)N[C@@H](CO)C(N)=O` [KWKSFLKTFKSAKKTGLHTALKAISS]?
MIC [1]: 2.75 µM (≈ 8.11 µg/mL); MIC [2]: 11 µM (≈ 32.5 µg/mL); MIC (Escherichia coli): 5.5 µM (≈ 16.2 µg/mL); MIC [3]: 2.75 µM (≈ 8.11 µg/mL); MIC [4]: 2.75 µM (≈ 8.11 µg/mL)

Which MIC (Escherichia coli MG1655) does the source give for `CC(C)C[C@H](NC(=O)[C@@H](NC(=O)[C@H](CCC(=O)O)NC(=O)[C@@H](N)CCCN=C(N)N)C(C)C)C(=O)NCC(=O)N[C@@H](Cc1ccc(O)cc1)C(=O)N[C@@H](CCC(=O)O)C(=O)N[C@@H](CCCN=C(N)N)C(=O)N[C@@H](CC(N)=O)C(=O)N[C@@H](CO)C(=O)N[C@@H](Cc1ccc(O)cc1)C(=O)N[C@@H](CCCCN)C(N)=O` [REVLGYERNSYK] here?
The MIC was at least 128 µM.

What about the MIC [14] of the same molecule?
Its MIC is over 128 µM.

And the MIC (Candida albicans)?
The MIC was over 128 µM.

What about the MIC [10] of the same molecule?
Its MIC is over 128 µM.

For `CC[C@H](C)[C@H](NC(=O)[C@H](CCCCN)NC(=O)CNC(=O)[C@H](CC(C)C)NC(=O)[C@H](Cc1ccccc1)NC(=O)[C@H](CCC(N)=O)NC(=O)[C@H](Cc1ccccc1)NC(=O)[C@@H](N)C(C)C)C(=O)N[C@H](C(=O)N[C@@H](Cc1cnc[nH]1)C(=O)N[C@@H](Cc1cnc[nH]1)C(=O)N[C@H](C(=O)NCC(=O)N[C@@H](CC(N)=O)C(=O)N[C@@H](Cc1ccccc1)C(=O)N[C@H](C(=O)N[C@@H](C)C(=O)NCC(=O)N[C@@H](Cc1ccccc1)C(=O)N[C@@H](CO)C(=O)N[C@@H](C)C(=O)N[C@H](C(=O)N[C@@H](Cc1ccccc1)C(N)=O)C(C)C)C(C)C)C(C)C)[C@@H](C)CC` [VFQFLGKIIHHVGNFVAGFSAVF], which MIC (Escherichia coli MG1655) is on record?
The MIC was at least 128 µM.

How did the MIC [6] turn out when `CC[C@H](C)[C@H](NC(=O)[C@H](CCCCN)NC(=O)[C@H](CCCCN)NC(=O)[C@H](CCCCN)NC(=O)[C@@H](NC(=O)[C@H](CCCN=C(N)N)NC(=O)[C@@H](NC(=O)[C@H](CC(C)C)NC(=O)[C@H](CC(C)C)NC(=O)[C@H](CCCCN)NC(=O)[C@H](CCSC)NC(=O)[C@@H]1CCCN1)C(C)C)C(C)C)C(=O)NCC(=O)N[C@@H](CC(=O)O)C(=O)N[C@@H](C)C(=O)N[C@@H](CC(C)C)C(=O)N[C@@H](CCC(=O)O)C(=O)N[C@@H](CC(C)C)C(=O)NCC(=O)O` [PMKLLVRVKKKIGDALELG] was run?
The MIC was at least 60.7 µM.
